In data set [1] the test system is metastatic erbB-2 positive breast cancer. Put plainly: phase 2 trial of neratinib as a single agent in subjects with metastatic erbB-2 positive breast cancer. In kind it is in vivo, human. The note with it: for median progression-free survival (PFS) / overall response rate (ORR): independent radiology assessment, preliminary data. From the text: Neratinib as a single agent has been studied in a phase 2 trial in subjects with metastatic erbB-2 positive breast cancer.

The subject of data set [2] is erbB-1- and/or erbB 2-expressing carcinoma cell lines. The settings on record: read-out: cellular IC50, preclinical data; cited from earlier work.
The mark [3] stands for this setting: Arm A: subjects with prior trastuzumab treatment.
The mark [4] stands for this setting: Arm B: subjects without prior exposure to trastuzumab.

The values below come from patent US9211291B2, “Treatment regimen utilizing neratinib for breast cancer” (WYETH LLC, priority 2009, dated 2015).

pIC50: −log10 of the molar value.

The pIC50 is the negative decadic logarithm of the IC50, by convention in mol/L. Consider `CCOc1cc2ncc(C#N)c(Nc3ccc(OCc4ccccn4)c(Cl)c3)c2cc1NC(=O)/C=C/CN(C)C` [neratinib, (2E)-N-[4-[[3-chloro-4-[(pyridin-2-yl)methoxy]phenyl]amino]-3-cyano-7-ethoxyquinolin-6-yl]-4-(dimethylamino)but-2-enamide], for which the “median progression-free survival (PFS)” value in data set [1] (setting [3]) came to 23 weeks; in data set [1] (setting [4]), 40 weeks. For the same compound, the “overall response rate (ORR)” value came out at 26% in data set [1] (setting [3]) and 57% in data set [1] (setting [4]). Also, in data set [1] (generally well manageable with medication, treatment interruption, or dose modification), the main adverse event result is reported as “diarrhea”. Also, in data set [1] (human, in vivo), the “other common adverse events” value is “nausea, vomiting, fatigue, and anorexia”. For the same compound, the pIC50 in data set [2] is > 7.00.
